# According to US20100279990A1, “ANTIPROLIFERATIVE COMPOUNDS, COMPOSITIONS AND METHODS OF USE” (RAMOT AT TEL-AVIV UNIVERSITY LTD., priority 2006, published 2010):
# Assays:
# OVXF 1619L = assay: Monolayer Assay, PI: OVXF 1619L (Ovarian Cancer); type: cell-based, human
# Source text: This example illustrates cell proliferation data in the form of IC50, IC70 and IC90 values obtained by exposure of human cancer cell-lines to compound (Ia). […].
# [1] = test system: Con-A activated naive mouse splenocytes; assay: Con-A-induced mouse splenocyte proliferation, alamar blue staining; type: cell-based; details: Splenocyte, 48 hr, alamar blue, read-out: IC50, inhibition in cell viability
# Source text: This example illustrates cell viability data obtained by separately administering different concentrations of compound (Ia), paroxetine, citalopram, and ecitalopram to Con-A activated naive mouse splenocytes. FIG. 3A depicts the comparative effect of compound (Ia), paroxetine, citalopram and ecitalopram on Con-A-induced mouse splenocyte proliferation using alamar blue staining after 48 hr. Each point represents the mean+/−SE of 5 determinations.
compound,measurement,setting,value
"CN[C@H]1CC[C@@H](c2ccc(Cl)c(Cl)c2)c2ccc(C#CCCCO)cc21 [compound (Ia), (1S-cis)-4-(3,4-dichlorophenyl)-7-(5-hydroxy-1-pentyn-1-yl)-1,2,3,4-tetrahydro-N-methyl-1-naphthalenamine hydroiodide]",Test/Control (%),OVXF 1619L; 2.3 μg/ml,88%
same,Test/Control activity class,OVXF 1619L; 2.3 μg/ml,− (− (T/C = 50))
same,Test/Control (%),OVXF 1619L; 7.5 μg/ml,2%
same,Test/Control activity class,OVXF 1619L; 7.5 μg/ml,+++ (+++ (T/C < 10))
same,Test/Control (%),OVXF 1619L; 23. μg/ml,1%
same,Test/Control activity class,OVXF 1619L; 23. μg/ml,+++ (+++ (T/C < 10))
same,Test/Control (%),OVXF 1619L; 75. μg/ml,1%
same,Test/Control activity class,OVXF 1619L; 75. μg/ml,+++ (+++ (T/C < 10))
same,Test/Control (%),OVXF 1619L; .75 μg/ml,98%
same,Test/Control activity class,OVXF 1619L; .75 μg/ml,− (− (T/C = 50))
same,IC50,[1],3.9 µM
